Entries after “also recorded” stand apart in the source; their conditions may differ. Where two headings read alike, the source gives them in different places.
Key:
[1] = system: human AVM-NKT cells (human CD56+ cells); assay: Humanized mice orally dosed with DSP (Example 8); type: in vivo, mouse; settings: oral HED 18-45 mg/kg, 24-48 hours later
Method: BRGSF humanized mice on a Balb/c background from Genoway generated by transplanting human umbilical cord blood CD34+ stem cells into irradiated mice that lack mouse B and T lymphocytes and NK cells but have a functional mouse complement system are orally dosed with HED 18-45 mg/kg DSP.
NCG mice are humanized by adoptive transfer using human umbilical cord blood-derived CD34+ stem cells, following myeloablation treatment. NCG mice from 4 donors (n=2 per donor) are orally dosed with HED 18-45 mg/kg DSP.
huNOG EXL from Taconic have an average of 54% of CD45 cells positive for human CD45. Six huNOG EXL humanized immune system mice from 3 donors (n=2 per donor) are orally dosed with HED 18-45 mg/kg DSP.

[2] = system: mouse whole blood and splenocytes; assay: Ex vivo/in vitro dexamethasone concentration-response curve
[3] = system: AVM-NKT cells (CD3highCD49b+); type: in vivo, mouse; settings: for induction of AVM-NKT cells by comparators: naïve mice, standard Cy/Flu chemotherapy or methylprednisone
From the text: Mice were anesthetized with isoflurane gas.

A20 B cell lymphoma = settings: 18 mg/kg HED
Method: FIG. 10B. […] Mice were inoculated with A20 lymphoma 2×10^6 cells in 100 μL of PBS mixed with 100 μL of chilled Matrigel into their flank. Three, 24 and 48 hours later mice were euthanized and tumors, blood, bone marrow and thymus were taken and made into single cell suspensions for flow cytometry detection of live A20 cells.

R/R NHL = assay: AVM0703 R/R NHL clinical trial, clinical and PET/CT response, survival; type: in vivo, human; settings: patient 108-004, 12 mg/kg; listed as DP
CD56+γδTCR+iTCR+ cells = assay: AVM0703 R/R NHL clinical trial, whole blood flow cytometry; type: in vivo, human; settings: listed as DP
Method: FIG. 15. 101-001 size (FSC) and complexity (SSC) scattergram of AVM_NKT cells. […] Blood was stained with panel antibodies based for 15 minutes in the dark at Room Temperature. RBC lysis was performed by addition of 1 mL of 1×BD FACS Lysing Solution (BD Bioscience), diluted with MilliQ water, for 10 minutes in the dark at Room Temperature. Samples were washed with 2 mL 1×DPBS CMF (Gibco) and resuspended in 300 μL of 1×DPBS CMF before 5 μL of 7AAD (Biolegend) was added to each sample for live/dead cell determination and incubated for 5 minutes in the dark at Room Temperature. 250 μL of sample were taken up for acquisition on Macsquant 16 Flow Cytometer (Miltenyi, Serial #40150). Live white blood cells were gated for CD56+ cells co-expressing gamma delta TCR and the invariant TCR and labelled red in the forward versus side scattergram. Red-labelled cells fall within the forward versus side scattergrams where large granular cells such as neutrophils and large granular lymphocytes are known to fall.
For characterisation of the induced/mobilized population of NKT-like cells (AVM-NKT) in humans, whole blood from human subjects was drawn in K2 EDTA Vacutainer tube (367862, BD Biosciences, NJ) and shipped to AVM Biotechnology at room temperature. 100 μl of whole blood was stained with the following antibodies: CD45 AF700 (2D1), CD16 APC (3G8), INKT PECy7 (6B11), CD8 PE (SK1), CD14 FITC (M5E2), CD56 BV650 (5.1H11), γδTCR BV510 (B1), CD19 BV421 (HIB19), NKp44 APC (P44-8) (all from Biolegend, San Diego, CA) and CD3 APCVio770 (BW264/56), (Miltenyi Biotec, San Jose, CA), 7-AAD, (Biolegend, San Diego CA) was included to distinguish the live and dead cells.

A20 cells = A20 cells treated with high dose dexamethasone in vitro; type: cell-based, mouse; settings: 72 hours after high dose dexamethasone treatment in vitro
[4] = system: peripheral blood lymphocytes; assay: Lymphodepletion study in naïve mice (complete blood count, flow cytometry)
Method: For initial lymphodepletion studies, naïve C57Bl/6 mice were treated with 18 mg/kg HED DP by oral gavage. Male C57BL/6 mice were obtained from Taconic Bioscience (Germantown, NY) and acclimated to laboratory conditions for at least one week. […] Each dosed timepoint group was accompanied by a placebo group of the same age and condition according to Table 3. […] When mice reached study timepoint, they were euthanized as follows. Mice were anesthetized with isoflurane gas. Once anesthetized, blood was drawn via cardiac puncture and place immediately in heparin-lined microtubes. 10 mL of 5 U/mL of Heparin/PBS was used for infused by slow push for retrograde perfusion via the abdominal aorta to flush out all remaining blood from the vasculature. Subsequently, 250 μL of blood was transferred to a lavender-topped EDTA-lined microtube and transported to by Lynette Brown at Flow Contract Site Labs (Bothell, WA) for analysis by flow cytometry. The remaining blood was sent to Phoenix Labs (Mukilteo, WA) for Complete Blood Counts and Clinical Chemistries

[5] = in vivo; cited from earlier work

## C[C@@H]1C[C@H]2[C@@H]3CCC4=CC(=O)C=C[C@]4(C)[C@@]3(F)[C@@H](O)C[C@]2(C)[C@@]1(O)C(=O)COP(=O)(O)O [DSP, Dexamethasone sodium phosphate]
[1]; BRGSF humanized mice
  cell population corresponding to AVM-NKT cells: can be observed
[1]; HuCD34-NCG mice
  cells corresponding to AVM-NKT cells, % of total splenocytes: 0.2-3%
[1]; huNOG EXL mice
  cells corresponding to AVM-NKT cells, % of total splenocytes: 0.2-3%

## C[C@@H]1C[C@H]2[C@@H]3CCC4=CC(=O)C=C[C@]4(C)[C@@]3(F)[C@@H](O)C[C@]2(C)[C@@]1(O)C(=O)CO [dexamethasone base]
[2]
  human equivalent dose giving an in vivo peak blood concentration of 100 uM: ~2.8 mg/kg
[2]; ex vivo, any concentration (data not shown)
  response of RBCs: no response
[2]; isolated mouse splenocytes and whole blood, 6 hours incubation
  concentration above which apoptosis decreases (biphasic curve): above 100 uM
[3]; 15 mg/kg HED
  induction of AVM-NKT cells, dose escalation: particularly robust production
[3]; 6+6 mg/kg HED: 6 mg/kg at time 0 and 6 mg/kg 24 hours later
  induction of AVM-NKT cells, dose escalation: particularly robust production
[3]; single dose between 6-12 mg/kg HED
  induction of AVM-NKT cells, dose escalation: can induce AVM-NKT cells

## C[C@@H]1C[C@H]2[C@@H]3CCC4=CC(=O)C=C[C@]4(C)[C@@]3(F)[C@@H](O)C[C@]2(C)[C@@]1(O)C(=O)COP(=O)(O)O [dexamethasone phosphate, Dexamethasone phosphate, reference compound]
A20 B cell lymphoma
  time of maximal ablation of A20 lymphoma implanted in the flank: ≤ 3 h
  time of maximal eradication of A20 metastasis to blood and thymus: 24 h
  time of maximal eradication of A20 metastasis to bone marrow: 48 h
R/R NHL
  objective beneficial response (PET/CT, clinical chemistries, CBCs or clinical symptoms): did not have a clinical response
CD56+γδTCR+iTCR+ cells; patient 103-005, 9 mg/kg, 1 hour post-infusion
  CD56+ γδTCR+ iTCR+ cells/uL: 22 cells/uL
CD56+γδTCR+iTCR+ cells; patient 108-004, 12 mg/kg, one hour, 3 days or 14 days after infusion (pre-infusion 0.09%, 4.6 cells/uL)
  CD56+γδTCR+invTCR+ cells in blood: no evidence

## C[C@@H]1C[C@H]2[C@@H]3CCC4=CC(=O)C=C[C@]4(C)[C@@]3(F)[C@@H](O)C[C@]2(C)[C@@]1(O)C(=O)CO [dexamethasone]
A20 cells
  apoptosis of A20 cells: about 30%
[4]; 18 mg/kg HED DP, 18 mg/kg
  platelet numbers: spared; also recorded: does not affect
[4]; 18 mg/kg HED DP, 6 hours to 35 days, 18 mg/kg
  number of live hematopoietic stem cells: spared or increased; also recorded: does not significantly alter
[4]; high-dose dexamethasone
  Basophils: reduced only at the 6 hour time point
  MSCs: spared or increased
  RBCs: spared
  eosinophils: reduced only at the 24 and 48 hour time points
[3]; normal mice, after dexamethasone dosing
  time to induction of AVM-NKT cells in the spleen: ≤ 48 h

## C[C@]12C=CC(=O)C=C1CC[C@@H]1[C@@H]2C(=O)C[C@@]2(C)[C@H]1CC[C@]2(O)C(=O)CO [prednisone]
[5]
  biologic half-life: about 20 hours

## cyclophosphamide/fludarabine [Cy/Flu]
[4]; 13 mg/kg HED cyclophosphamide and 0.8 mg/kg HED fludarabine, 48 hours
  Total NKT cell numbers: no such increase
[3]
  induction of AVM-NKT cells by comparators: not induced
[3]; listed as Cyclophosphamide/fludarabine
  induction of AVM-NKT cells by comparators: does not induce

## methylprednisone
[3]
  induction of AVM-NKT cells by comparators: not induced

Source: patent US20240358829A1, “Lymphocyte Population and Methods for Producing Same” (AVM Biotechnology, LLC, priority 2021, published 2024)
